Assays:
SK-N-AS cells [1] = experiment: ALAMARBLUE assay of plated cells after freeze-thaw of suspended cells; assay type: cell-based, Human; conditions: for cell viability after freeze-thawing on decreasing the concentration of PBS: hypotonic conditions, FIG. 11
Procedure: The cells were plated on a 96-well plate in a density of 2.25×10^5 cells/cm^2 and diluted with medium to the final volume of 200 μL inside the well. The cells were then incubated overnight at 37° C. and 5% CO2 so they attached to the wells. Cells were stained with 10 μL ALAMARBLUE® reagent per 100 μL of medium in the well and incubated for 4 h. Same procedure was applied for a blank, where 200 μL of medium was pipetted into the well. After that, 100 μL of solution above the cells was pipetted into a black non-transparent 96-well plate and fluorescence was measured with SPECTRAMAX® plate reader (excitation λ=550 nm, emission λ=590 nm).
(§1) Formulations were prepared in 50 mL Falcon tubes and subsequently sterile filtered under the bench with 0.22 μm syringe filter and a syringe. Sterile formulations were then stored at 2-8° C. until further use. 0.5 mL of cell suspension in either PBS or medium at a concentration of 20*10^6 cells/mL was mixed with 0.5 mL of pre-warmed sterile formulation. Vials were then stoppered and stored in a −80° C. freezer for minimum overnight.
(§2) Subsequently, the vials were taken from the −80° C. freezer and rapidly thawed in the water bath at 37° C. Immediately after thawing, 0.1 mL of cell suspension was 2× diluted with medium and counted with NucleoCounter to obtain cell viability [%] and concentration inside the vial. Suspension was then plated on a 96-well plate so the cell density was 2.25×10^5 cells/cm^2 (growth area in one well is 0.32 cm^2). Calculation of the volume (V) of cell suspension is according to following equation: […]
Calculated volume was diluted inside of the well with cell growth medium, so that the final volume was 0.2 mL. 96-well plate with samples was incubated overnight in the incubator and ALAMARBLUE® assay was performed the morning after (if not stated differently in the results section).
ALAMARBLUE® on the other hand, contains a reagent called resazurin. This is a non-toxic, blue, weakly fluorescent dye, which can permeate cell membranes. Resazurin undergoes a metabolic reduction inside of the cell to a form called resorufin, which is pink and highly fluorescent. The intensity of fluorescence is proportional to the amount of cells that are able to metabolize resazurin and are thus considered viable.

SK-N-AS cells [2] = experiment: DAPI/acridine orange viability (NUCLEOCOUNTER) directly after freeze-thaw; assay type: cell-based, Human; conditions: directly after thawing, FIG. 6
Procedure: 200 μL of cell suspension was pipetted into 1.5 mL Eppendorf tube and diluted with medium. Diluted suspension was then pipetted with VIAL-[…]™ and inserted into the NUCLEOCOUNTER® for measurement.
as §1, §2
Next, we compared two methods for determining viability and noticed a large discrepancy in obtained results (FIG. 5 and FIG. 6). The reason for this is the difference in underlying principles of viability assessment of both methods. As previously, DAPI/acridine orange staining is performed using NUCLEOCOUNTER®, which is an integrated fluorescence microscope with dual fluorescence channels. One is for staining with acridine orange and the other with DAPI dye. They both bind to DNA and label cellular nuclei with high specificity. Acridine orange can permeate the cell membrane and is used for cell detection, while DAPI cannot permeate the membrane and binds only to nuclei of dead cells with disrupted membrane. Thus, the cell viability according to the DAPI/acridine orange method, is mostly based on the integrity of cell membranes. Dyes are fluorescent and therefore visible when using fluorescence filters in microscope, while cell debris and other particles without DNA are not visible. The software then identifies and analyses the individual cells (even within smaller aggregates) and calculates the viability, by comparing the ratio of signal with Acridine Orange and DAPI staining (according to equation below).

[3] = Freeze drying, visual inspection of lyophilization cake; assay type: physicochemical; conditions: 1M propylene glycol and 0.1M trehalose formulation; FIG. 21B
Procedure: Freeze drying was performed with the SP Scientific's LyoStar 3 pilot scale freeze dryer with 0.4 m^2 of shelf surface area. Vials were filled and loaded on a tray under the biosafety bench and then loaded in the freeze dryer. Vials were left on the tray inside the lyophilizer, to avoid any spillage of biomaterial inside the chamber in case of a vial breakage.
Employed conservative lyophilization programs (Table 3 and Table 4) included freezing and primary drying steps. Since it is known from literature, that complete elimination of water and higher temperatures employed during secondary drying negatively impact the cell survival during process, the step was omitted. The product temperature was monitored by including a thermocouple inside the vial, so that its tip touched the bottom of the vial. After unloading of the vials from the lyophilizer, they were visually inspected.

C[S+](C)[O-] [DMSO, Dimethyl Sulfoxide, reference compound]
cell viability compared to the untreated control (SK-N-AS cells [1]; 5% DMSO, internal data): over 80%

OCCO [ethylene glycol, Ethylene glycol]
densities of plated cells after thawing, 1M ethylene glycol vs 1M propylene glycol (SK-N-AS cells [1]; 1M, FIG. 8B): not significantly different
cell density after thawing vs propylene glycol, ANOVA and t-test (SK-N-AS cells [1]; formulation in medium, P<0.05): significantly worse than propylene glycol
cell viability after freeze-thawing on decreasing the concentration of PBS (SK-N-AS cells [1]): decrease in cell viability

OCC(O)CO [glycerol, Glycerol]
cell density after freeze-thaw compared with 5% DMSO formulation in medium (SK-N-AS cells [1]; glycerol formulation in medium, FIG. 8A): not significantly worse than 5% DMSO formulation

CC(O)CO (centres unmarked) [propylene glycol, Propylene glycol]
viability after FT of cells (DAPI/acridine testing) (SK-N-AS cells [2]; 0.1M propylene glycol): around 50%
viability after FT of cells (DAPI/acridine testing) (SK-N-AS cells [2]; 0.2M propylene glycol): around 50%
viability after FT of cells (DAPI/acridine testing) (SK-N-AS cells [2]; 1M propylene glycol): ~100%
viability after FT of cells (DAPI/acridine testing) (SK-N-AS cells [2]; 2M propylene glycol): ~100%
optimisation of propylene glycol concentration, viability by ALAMARBLUE (SK-N-AS cells [1]; 1M concentration, FIG. 7B): most favourable
relative viability to control (untreated cells) after freeze thawing (SK-N-AS cells [1]; 5% (v/v) in cell medium, FIG. 7A): efficient in protecting the cells compared to other tested excipients
cell viability of treated cells relative to untreated cells (metabolic assay) (SK-N-AS cells [1]; after FT, compared with DAPI/acridine results, FIG. 5): much lower cell viability
cell viability after freeze-thawing on decreasing the concentration of PBS (SK-N-AS cells [1]): decrease in cell viability
appearance of lyophilizate [3]: remained in liquid form

Source: US20220338463A1, “METHOD OF PRODUCING LYOPHILIZED CELLS” (LONZA LTD, priority 2019, published 2022)
